Patent US10532053B2, “Histone deacetylase inhibitor, and preparation method and use thereof” (GUANGDONG ZHONGSHENG PHARMACEUTICAL CO., LTD, priority 2015, dated 2020)
Like-named read-outs stand apart in the source and are kept apart here.

Legend:
HDAC1 = biological target: T1, HDAC1 (Homo sapiens, UniProt Q13547); assay: HDAC inhibitory activity, fluorescence-coupled acetylated peptide substrate assay (Lys-Ac-AMC); assay type: biochemical
T1 construct: purchased BPS Bioscience
Procedure: (§2) The HDAC inhibitory activity was determined by fluorescence-coupled acetylated peptide substrate assay (Lys-Ac-AMC). HDAC1 protein was purchased from BPS Bioscience, and the reaction buffer system was a modified tris(hydroxymethyl)aminomethane buffer (pH 7.0). The small molecule compounds of the present invention were prepared by being dissolved in 100% DMSO. HDAC was prepared in a buffer at a certain concentration as an enzyme solution; trypsin and fluorescent group 4-amino-7-coumarin coupled-acetylated peptide (Ac-peptide) substrate were prepared in a buffer at a certain concentration as a substrate solution. The compounds were added into the reaction wells in a 384-well plate at a designed concentration of 10 μM, 1 μM, 0.5 μM, 0.1 μM, 0.05 μM, 0.01 μM, 0.005 μM, 0.001 μM, and 0.00005 μM, respectively, and then 15 μl of the HDAC solution was added into the reaction wells (15 μl of blank buffer to the control well). […] The results were analyzed by GraphPad Prism software and IC50 values were calculated according to the formula: Y=Background Data+(Top Data−Background Data)/(1+10^((Log IC50−X) a curve slope)), where Y: the inhibition rate (%) and X: the concentration of the compound.

HDAC6 = biological target: T2, HDAC6 (Homo sapiens, UniProt Q9UBN7); assay: HDAC inhibitory activity, fluorescence-coupled acetylated peptide substrate assay; assay type: biochemical; conditions: for Selection Ratio HDAC1/6: ratio of IC50 HDAC1 to HDAC6; for Selection Ratio HDAC8/6: ratio of IC50 HDAC8 to HDAC6
T2 sequence (Q9UBN7 1-1215): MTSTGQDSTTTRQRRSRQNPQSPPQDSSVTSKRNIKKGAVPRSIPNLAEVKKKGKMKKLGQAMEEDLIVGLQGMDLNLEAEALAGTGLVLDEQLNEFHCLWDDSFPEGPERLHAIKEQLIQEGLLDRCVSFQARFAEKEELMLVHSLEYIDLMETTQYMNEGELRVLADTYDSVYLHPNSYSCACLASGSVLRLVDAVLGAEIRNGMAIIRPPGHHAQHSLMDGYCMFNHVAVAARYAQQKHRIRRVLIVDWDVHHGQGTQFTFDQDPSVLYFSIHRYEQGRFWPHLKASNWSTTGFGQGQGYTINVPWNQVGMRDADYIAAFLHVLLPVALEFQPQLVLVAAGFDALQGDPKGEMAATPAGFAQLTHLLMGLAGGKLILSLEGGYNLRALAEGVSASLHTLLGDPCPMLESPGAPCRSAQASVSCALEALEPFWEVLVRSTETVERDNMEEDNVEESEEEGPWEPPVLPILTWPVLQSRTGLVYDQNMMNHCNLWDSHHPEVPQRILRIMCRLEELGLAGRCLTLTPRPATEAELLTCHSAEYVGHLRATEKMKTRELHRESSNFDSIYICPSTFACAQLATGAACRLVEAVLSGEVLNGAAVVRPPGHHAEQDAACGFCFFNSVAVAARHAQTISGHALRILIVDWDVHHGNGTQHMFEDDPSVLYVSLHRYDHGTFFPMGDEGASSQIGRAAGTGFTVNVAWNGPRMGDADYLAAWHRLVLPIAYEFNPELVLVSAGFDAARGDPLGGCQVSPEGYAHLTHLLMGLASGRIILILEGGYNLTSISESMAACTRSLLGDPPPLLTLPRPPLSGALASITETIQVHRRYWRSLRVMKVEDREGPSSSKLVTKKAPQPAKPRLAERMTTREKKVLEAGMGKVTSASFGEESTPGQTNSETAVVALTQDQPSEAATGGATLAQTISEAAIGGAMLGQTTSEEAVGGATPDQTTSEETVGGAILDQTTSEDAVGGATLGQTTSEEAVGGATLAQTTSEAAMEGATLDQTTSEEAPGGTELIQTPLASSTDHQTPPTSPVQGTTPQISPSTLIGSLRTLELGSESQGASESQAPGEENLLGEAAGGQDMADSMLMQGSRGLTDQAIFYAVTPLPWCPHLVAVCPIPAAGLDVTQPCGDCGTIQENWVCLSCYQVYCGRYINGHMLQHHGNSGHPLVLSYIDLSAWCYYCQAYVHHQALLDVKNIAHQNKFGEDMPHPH
Procedure: as §2

[1] = test system: Human cervical cancer cell Hela; assay: Cell proliferative activity (MTT / cck-8); assay type: cell-based; conditions: incubated for 96 hours, read-out: Half-Inhibitory Concentration IC50 Human cervical cancer cell Hela
Procedure: (§1) Tumor cell line A375: human melanoma cell; H460: lung adenocarcinoma cell; Hela: human cervical cancer cell; HepG2: human liver cancer cell; and SKOV-3: human ovarian cancer cell, were all purchased from ATCC and cultured to logarithmic phase according to the cultivation protocol recommended by ATCC. The cells in the logarithmic phase were plated onto a 96-well plate at 2000-3000 cells/well; in the case of adherent cells, the cells should be adherent to the wall. […] After that, the cell proliferative activity was determined by MTT assay for the tumor cells representing the solid tumor model and by cck-8 assay for the tumor cells representing the hematologic tumor model.

Human melanoma A375 = assay: Cell proliferative activity (MTT / cck-8); assay type: cell-based; conditions: A-375, incubated for 96 hours, read-out: Half-Inhibitory Concentration IC50 Human melanoma A375
Procedure: as §1

[2] = test system: Human ovarian cancer cell SKOV-3; assay: Cell proliferative activity (MTT / cck-8); assay type: cell-based; conditions: SK-OV-3, incubated for 96 hours, read-out: Half-Inhibitory Concentration IC50 Human ovarian cancer cell SKOV-3
Procedure: as §1

[3] = test system: Human liver cancer cell HepG2; assay: Cell proliferative activity (MTT / cck-8); assay type: cell-based; conditions: incubated for 96 hours, read-out: Half-Inhibitory Concentration IC50 Human liver cancer cell HepG2
Procedure: as §1

[4] = test system: Human lung cancer cell H460; assay: Cell proliferative activity (MTT / cck-8); assay type: cell-based; conditions: NCI-H460, incubated for 96 hours, read-out: Half-Inhibitory Concentration IC50 Human lung cancer cell H460
Procedure: as §1

HDAC8 = biological target: T3, HDAC8 (Homo sapiens, UniProt Q9BY41); assay: HDAC inhibitory activity, fluorescence-coupled acetylated peptide substrate assay
T3 sequence (Q9BY41 1-377): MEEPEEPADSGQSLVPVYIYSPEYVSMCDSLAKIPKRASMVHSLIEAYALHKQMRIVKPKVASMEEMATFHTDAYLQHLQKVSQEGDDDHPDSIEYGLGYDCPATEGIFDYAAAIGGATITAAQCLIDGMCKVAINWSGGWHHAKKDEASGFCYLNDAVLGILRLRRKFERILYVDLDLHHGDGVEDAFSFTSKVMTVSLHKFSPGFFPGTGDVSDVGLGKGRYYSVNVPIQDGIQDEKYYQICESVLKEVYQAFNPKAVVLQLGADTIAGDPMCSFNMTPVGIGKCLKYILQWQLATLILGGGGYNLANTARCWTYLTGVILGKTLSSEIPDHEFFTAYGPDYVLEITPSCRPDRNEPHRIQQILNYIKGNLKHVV
Procedure: as §2

T1 sequence (Q13547 whole entry): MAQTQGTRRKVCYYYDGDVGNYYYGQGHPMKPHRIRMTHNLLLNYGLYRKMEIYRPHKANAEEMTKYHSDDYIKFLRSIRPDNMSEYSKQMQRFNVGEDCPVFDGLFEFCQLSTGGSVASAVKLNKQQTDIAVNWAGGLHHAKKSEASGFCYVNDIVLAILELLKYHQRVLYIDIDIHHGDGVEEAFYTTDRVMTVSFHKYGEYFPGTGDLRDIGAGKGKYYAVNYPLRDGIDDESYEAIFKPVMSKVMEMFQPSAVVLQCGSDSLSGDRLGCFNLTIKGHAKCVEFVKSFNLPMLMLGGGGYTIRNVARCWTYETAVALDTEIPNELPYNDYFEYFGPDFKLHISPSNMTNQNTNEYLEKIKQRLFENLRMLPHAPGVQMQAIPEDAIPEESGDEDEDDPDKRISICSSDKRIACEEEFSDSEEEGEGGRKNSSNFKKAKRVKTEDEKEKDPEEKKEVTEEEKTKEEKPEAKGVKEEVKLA

Row | Compound | IC50 (HDAC1; Table 2) [nM] | IC50 (HDAC1; Table 3) [nM] | IC50 (HDAC6; Table 2) [nM] | IC50 (HDAC6; Table 3) [nM] | Selection Ratio HDAC1/6 (HDAC6) | Selection Ratio HDAC8/6 (HDAC6) | IC50 [1] [nM] | IC50 (Human melanoma A375) [nM] | IC50 [2] [nM] | IC50 [3] [nM] | IC50 [4] [nM] | IC50 (HDAC8; IC50 HDAC8, Table 2) [nM] | IC50 (HDAC8; read-out: IC50 HDAC8, Table 3) [nM] | IC50 (HDAC8; IC50 HDAC8, Table 3) [nM]
1 | Cc1nc(N(C)c2ccc(OCc3ccc(C(=O)NO)cc3)cc2)c2ccccc2n1 [II-5, N-hydroxy-4-((4-(methyl(2-methyl-4-quinazolinyl)amino)phenoxy)methyl)benzamide] | – | – | < 10 | 6.4 | 6.9 | 371.3 | > 1000 | > 1000 | > 1000 | > 1000 | > 1000 | > 1000 | – | 2380
2 | Cc1nc(N(C)c2ccc(Oc3ccc(C(=O)NO)cc3)cc2)c2ccccc2n1 [II-6, N-hydroxy-4-(4-(methyl(2-methyl-4-quinazolinyl)amino)phenoxy)benzamide] | 100 to 1000 | 552 | 10 to 100 | 72 | 7.7 | 68.5 | 100 to 1000 | 100 to 1000 | 100 to 1000 | 100 to 1000 | 100 to 1000 | > 1000 | – | 4930
3 | Cc1nc(N(C)c2ccc(Oc3ccc(C(=O)NO)cn3)cc2)c2ccccc2n1 [II-7, N-hydroxy-6-(4-(methyl(2-methyl-4-quinazolinyl)amino)phenoxy)nicotinamide] | 100 to 1000 | 638 | < 10 | 5.8 | 110.0 | 218.1 | 100 to 1000 | 100 to 1000 | 100 to 1000 | 100 to 1000 | 100 to 1000 | > 1000 | – | 1260
4 | CN(c1ccc(OCc2ccc(C(=O)NO)cc2)cc1)c1ncnc2ccccc12 [II-16, N-hydroxy-4-((4-(methyl(4-quinazolinyl)amino)phenoxy)methyl)benzamide] | 100 to 1000 | 385 | < 10 | 10 | 38.5 | 167.6 | > 1000 | > 1000 | > 1000 | > 1000 | > 1000 | > 1000 | – | 1680
5 | CN(c1ccc(Oc2ccc(C(=O)NO)cn2)cc1)c1ncnc2ccccc12 [II-18, N-hydroxy-6-(4-(methyl(4-quinazolinyl)amino)phenoxy)nicotinamide] | 100 to 1000 | 437 | 10 to 100 | 15 | 29.1 | 194.4 | 100 to 1000 | 100 to 1000 | 100 to 1000 | 100 to 1000 | 100 to 1000 | > 1000 | – | 2920

Second part, the molecule after the results:

Row | IC50 (HDAC1; Table 2) [nM] | IC50 (HDAC1; Table 3) [nM] | IC50 (HDAC6; Table 2) [nM] | IC50 (HDAC6; Table 3) [nM] | Selection Ratio HDAC1/6 (HDAC6) | Selection Ratio HDAC8/6 (HDAC6) | IC50 [1] [nM] | IC50 (Human melanoma A375) [nM] | IC50 [2] [nM] | IC50 [3] [nM] | IC50 [4] [nM] | IC50 (HDAC8; IC50 HDAC8, Table 2) [nM] | IC50 (HDAC8; read-out: IC50 HDAC8, Table 3) [nM] | IC50 (HDAC8; IC50 HDAC8, Table 3) [nM] | Compound
6 | 100 to 1000 | 172 | < 10 | 8.6 | 20.0 | 137.3 | 100 to 1000 | > 1000 | 100 to 1000 | 100 to 1000 | 100 to 1000 | > 1000 | 1180 | – | Cc1nc(N(C)c2ccc(OCC(=O)NO)cc2)c2ccccc2n1 [II-1, N-hydroxy-2-(4-(methyl(2-methyl-4-quinazolinyl)amino)phenoxy)acetamide]
7 | 100 to 1000 | 451 | 10 to 100 | 57 | 7.9 | 29.8 | > 1000 | > 1000 | 100 to 1000 | > 1000 | 100 to 1000 | > 1000 | 1700 | – | Cc1nc(N(C)c2ccc(OCCCCC(=O)NO)cc2)c2ccccc2n1 [II-3, N-hydroxy-5-(4-(methyl(2-methyl-4-quinazolinyl)amino)phenoxy)pentanamide]
8 | 100 to 1000 | 272 | 10 to 100 | 34 | 8.0 | 44.4 | > 1000 | > 1000 | 100 to 1000 | > 1000 | > 1000 | > 1000 | 1510 | – | Cc1nc(N(C)c2ccc(OCCCCCC(=O)NO)cc2)c2ccccc2n1 [II-4, N-hydroxy-6-(4-(methyl(2-methyl-4-quinazolinyl)amino)phenoxy)hexanamide]
9 | 10 to 100 | 76 | 10 to 100 | 34 | 2.2 | 72.3 | 100 to 1000 | 100 to 1000 | 100 to 1000 | 100 to 1000 | 100 to 1000 | > 1000 | 2460 | – | CN(c1ccc(OCCCC(=O)NO)cc1)c1ncnc2ccccc12 [II-13, N-hydroxy-4-(4-(methyl(4-quinazolinyl)amino)phenoxy)butanamide]
10 | 100 to 1000 | 203 | 10 to 100 | 49 | 4.1 | 27.1 | > 1000 | > 1000 | > 1000 | > 1000 | > 1000 | > 1000 | 1330 | – | CN(c1ccc(OCCCCC(=O)NO)cc1)c1ncnc2ccccc12 [II-14, N-hydroxy-5-(4-(methyl(4-quinazolinyl)amino)phenoxy)pentanamide]
11 | 100 to 1000 | 176 | 10 to 100 | 19 | 9.3 | 55.7 | > 1000 | 100 to 1000 | > 1000 | > 1000 | > 1000 | > 1000 | 1060 | – | CN(c1ccc(OCCCCCC(=O)NO)cc1)c1ncnc2ccccc12 [II-15, N-hydroxy-6-(4-(methyl(4-quinazolinyl)amino)phenoxy)hexanamide]
12 | > 1000 | – | 100 to 1000 | – | – | – | > 1000 | > 1000 | > 1000 | > 1000 | > 1000 | > 1000 | – | – | Cc1nc(Nc2ccc(OCCC(=O)NO)cc2)c2ccccc2n1 [II-24, N-hydroxy-3-(4-((2-methyl-4-quinazolinyl)amino)phenoxy)propionamide]
